Experimental data from publication PMC12518634, “The noncanonical function of liver-type phosphofructokinase potentiates the efficacy of HDAC inhibitors in cancer” (Signal Transduction and Targeted Therapy, 2025).
Read-outs that look alike come from different tables or passages of the source.

Legend:
CC11 PDX tumors = assay: CCA patient-derived xenograft tumor growth; format: in vivo; settings: n = 5 mice per group, Fig. 2d, e
Text: (§1) For patient-derived xenograft (PDX) models, fresh tumor samples were cut into small pieces of approximately 1 mm³ and subcutaneously transplanted into the flanks of NSG mice (P1 generation). After 2 to 3 months of tumor growth, the established PDX tumors were transplanted into subsequent generations (P2-Pn) under the skin of nude or NSG mice. When the tumors reached approximately 100 mm^3, the mice were randomly allocated to different groups and treated with HDAC inhibitors or saline. Tumor volume calculation, euthanasia of the mice, and specimen preparation followed the procedures of the CDX model.

CC51 PDX tumors = assay: CCA patient-derived xenograft tumor growth; format: in vivo; settings: n = 5 mice per group, Fig. 2d, e
Text: as §1

CC57 PDX tumors = assay: CCA patient-derived xenograft tumor growth; format: in vivo; settings: n = 5 mice per group, Fig. 2d, e
Text: as §1

CC52 PDX tumors = assay: CCA patient-derived xenograft tumor growth; format: in vivo; settings: n = 5 mice per group, Fig. 2d, e
Text: as §1

CC56 PDX tumors = assay: CCA patient-derived xenograft tumor growth; format: in vivo; settings: n = 5 mice per group, Fig. 2d, e
Text: as §1

CC16 PDX tumors = assay: CCA patient-derived xenograft tumor growth; format: in vivo; settings: n = 5 mice per group, Fig. 2d, e
Text: as §1

1405R3 = assay: High-throughput drug screen, CellTiter-Glo viability, 72 h; format: cell-based, human; parameters: AUC: scale not given here; settings: for EC50: Homo sapiens, 72 h
Procedure, shortened: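 Responses are drug sensitivity scores (efficacy cutoff ≥10), fitted from CellTiter-Glo luminescence. Each drug was given at five concentrations (10 to 0.001 μM, tenfold steps) in duplicate for 72 h. Cells were plated at 3000/well 24 h before dosing.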

783C-6 = assay: as above; format: cell-based, human; parameters: AUC: scale not given here; settings: for EC50: Homo sapiens, 72 h
Procedure, shortened: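 Cholangiocarcinoma cells were seeded at 3000/well in 384-well plates and dosed after 24 h. Drugs were tested at 10, 1, 0.1, 0.01 and 0.001 μM in duplicate for 72 h, with viability read by CellTiter-Glo luminescence.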

SK-CHA-1 cells = assay: Cell viability assay (CellTiter-Glo, 72 h), GI50; format: cell-based; settings: Homo sapiens, Fig. 1b
Procedure: (§2) Cell viability was assessed using the CellTiter-Glo luminescent cell viability assay (Vazyme, DD1101) following the manufacturer’s instructions. Briefly, 5000 cells per well were seeded into a 96-well white bottom permeable plate. Different concentrations of drugs were added to each well. After 72 h of treatment, a mixture of CellTier reagent and serum-free culture medium was prepared at a 1:1 ratio, and 100 μL of the mixture was added to each well. After incubation at 37 °C for 15 min, the luminescence was measured using a microplate reader (Synergy H1, Biotek). All the experiments were conducted in triplicate. Cell viability (relative luminescence) was defined as the luminescence of the drug treatment relative to that of the vehicle control.

RBE cells = assay: Cell viability assay (CellTiter-Glo, 72 h), GI50; format: cell-based; settings: Homo sapiens, Fig. 1b
Procedure: as §2

1405R3 cells = assay: Cell viability assay (CellTiter-Glo, 72 h), GI50; format: cell-based; settings: Homo sapiens, Fig. 1b
Procedure: as §2

HuCCT1 cells = assay: Cell viability assay (CellTiter-Glo, 72 h), GI50; format: cell-based; settings: Homo sapiens
Procedure: as §2

783C-6 cells = assay: Cell viability assay (CellTiter-Glo, 72 h), GI50; format: cell-based; settings: Homo sapiens
Procedure: as §2

TFK1 xenografts = assay: Cell-derived xenograft tumor growth; format: in vivo; settings: mice xenografted with PFKL high-expressed TFK1 cells; n = 5 mice per group; Fig. 2b, c
Procedure: (§3) For cell-derived xenograft (CDX) models, tumor cells were resuspended in saline and combined with an equal volume of Matrigel. A total of 1 × 10^6 cells in a 0.1 ml mixture were injected subcutaneously into the right flank of 6-week-old male nude mice. Once the tumor volume reached approximately 100 mm³, the mice were randomly grouped and treated with drugs or saline. The tumor volume was measured every 3 days and calculated via the following formula: tumor volume = (length × width^2) × 0.5. When the tumor volume reached 1500 mm³, the mice were euthanized via CO2 asphyxiation. The tumor tissues were harvested for further study.

783C-6 xenografts = assay: Cell-derived xenograft tumor growth; format: in vivo; settings: mice xenografted with PFKL high-expressed 783C-6 cells, n = 5 mice per group, Fig. 2b
Procedure: as §3

SK-CHA-1 xenografts = assay: Cell-derived xenograft tumor growth; format: in vivo; settings: mice xenografted with PFKL high-expressed SK-CHA-1 cells; n = 5 mice per group; Fig. 2b, c
Procedure: as §3

HuCCT1 xenografts = assay: Cell-derived xenograft tumor growth; format: in vivo; settings: mice xenografted with PFKL low-expressed HuCCT1 cells; n = 5 mice per group; Fig. 2b, c
Procedure: as §3

1405R3 xenografts = assay: Cell-derived xenograft tumor growth; format: in vivo; settings: mice xenografted with PFKL low-expressed 1405R3 cells; n = 5 mice per group; Fig. 2b, c
Procedure: as §3

[1] = HuCCT-1, 72 h, HuCCT1, 72 h, CellTiter-Glo, Fig. 1b
[2] = HuCCT-1, 72 h, HuCCT1 vector, 72 h, Fig. 1j
[3] = HuCCT-1, 72 h, HuCCT1 with PFKL overexpression (ovPFKL), 72 h, Fig. 1j
[4] = 783C-6 after interference with LHCGR si-1, Fig. 1f
[5] = 783C-6 after interference with LHCGR si-2, Fig. 1f
[6] = 783C-6 after interference with NFIA si-1, Fig. 1f
[7] = 783C-6 after interference with NFIA si-2, Fig. 1f
[8] = 783C-6 after interference with PFKFB1 si-1, Fig. 1f
[9] = 783C-6 after interference with PFKFB1 si-2, Fig. 1f
[10] = 783C-6 after interference with PFKL si-1, Fig. 1f
[11] = 783C-6 after interference with PFKL si-2, Fig. 1f
[12] = 783C-6 expressing sgNC, Fig. 1g
[13] = 783C-6 expressing sgPFKL-1, Fig. 1g
[14] = 783C-6 expressing sgPFKL-2, Fig. 1g

Row | SMILES | PDX tumor growth compared to the control group (CC11 PDX tumors) | PDX tumor growth compared to the control group (CC51 PDX tumors) | PDX tumor growth compared to the control group (CC57 PDX tumors) | PDX tumor growth compared to the control group (CC52 PDX tumors) | PDX tumor growth compared to the control group (CC56 PDX tumors) | PDX tumor growth compared to the control group (CC16 PDX tumors) | GI50 (SK-CHA-1 cells) [nM] | GI50 (RBE cells) [nM] | GI50 (1405R3 cells) [nM] | GI50 (HuCCT1 cells; [1]) [nM] | GI50 (HuCCT1 cells; [2]) [nM] | GI50 (HuCCT1 cells; [3]) [nM] | GI50 (783C-6 cells; 783C-6, CellTiter-Glo, Fig. 1b) [nM] | GI50 (783C-6 cells; [4]) [nM] | GI50 (783C-6 cells; [5]) [nM] | GI50 (783C-6 cells; [6]) [nM] | GI50 (783C-6 cells; [7]) [nM] | GI50 (783C-6 cells; [8]) [nM] | GI50 (783C-6 cells; [9]) [nM] | GI50 (783C-6 cells; [10]) [nM] | other results
1 | Cc1[nH]c2ccccc2c1CCNCc1ccc(/C=C/C(=O)NO)cc1 [Panobinostat, panobinostat] | notably attenuated the growth | no significant disparities | notably attenuated the growth | notably attenuated the growth | no significant disparities | notably attenuated the growth | 72.2 | 276 | 162 | 244 | 285 | 31.2 | 37.4 | 48 | 65.5 | 56.6 | 51.5 | 59 | 50.5 | 590 | AUC (1405R3; 1405R3 DSRT analysis, area under the dose-response curve): 218.4; DSS (1405R3; 1405R3 DSRT analysis, drug sensitivity score): 25.4; MIN (1405R3; 1405R3 DSRT analysis, lower asymptote of fitted dose-response curve): 0; EC50 (1405R3; 1405R3 DSRT analysis, CellTiter-Glo viability, fitted dose-response curve, Min.Conc.tested 1, Max.Conc.tested 10000, GI50, read-out: EC50): 64.9 nM; DSS (783C-6; 783C-6 cells, DSS of DSRT analysis): 31.3; AUC (783C-6; 783C-6 cells, area under the dose-response curve): 262.4; MIN (783C-6; 783C-6 cells, minimum of dose-response curve): 0.3; EC50 (783C-6; read-out: EC50): 22.9 nM; GI50 (783C-6 cells; [11]): 276 nM; GI50 (783C-6 cells; [12]): 52.4 nM; GI50 (783C-6 cells; [13]): 467 nM; GI50 (783C-6 cells; [14]): 250 nM; GI50 (783C-6 cells; 783C-6 siNC, Fig. 1f): 61.4 nM; tumor growth (TFK1 xenografts): markedly inhibited tumor growth; tumor growth (783C-6 xenografts): markedly inhibited tumor growth; tumor growth (SK-CHA-1 xenografts): markedly inhibited tumor growth; tumor growth (HuCCT1 xenografts): limited efficacy; tumor growth (1405R3 xenografts): limited efficacy
2 | C/C=C1\NC(=O)[C@H]2CSSCC/C=C/[C@H](CC(=O)N[C@H](C(C)C)C(=O)N2)OC(=O)[C@H](C(C)C)NC1=O [Romidepsin, romidepsin] | notably attenuated the growth | no significant disparities | notably attenuated the growth | notably attenuated the growth | no significant disparities | notably attenuated the growth | 5.5 | 115 | 64.4 | 83.4 | 74 | 3.96 | 2.55 | 3.8 | 3.4 | 2.5 | 2.8 | 3.1 | 2.9 | 38.8 | AUC (1405R3): 228.5; DSS (1405R3): 26.8; MIN (1405R3): 0; EC50 (1405R3): 51.3 nM; AUC (783C-6): 354.8; DSS (783C-6): 43.7; MIN (783C-6): 0; EC50 (783C-6): 2.7 nM; GI50 (HuCCT1 cells; HuCCT-1, HuCCT1, pretreated with peptide or NS for 12 h, then romidepsin 72 h, Fig. 5g): 93.5 nM; GI50 (783C-6 cells; 783C-6, romidepsin alone or combined with PFKL enzymatic activity modifier, Fig. 3b second table): 4.3 nM; GI50 (783C-6 cells; 783C-6, romidepsin alone or combined with glycolysis inhibitors, Fig. 3b first table): 3.49 nM; GI50 (783C-6 cells; [11]): 11.4 nM; GI50 (783C-6 cells; [12]): 2.9 nM; GI50 (783C-6 cells; [13]): 34.8 nM; GI50 (783C-6 cells; [14]): 15.3 nM; tumor growth (TFK1 xenografts): markedly inhibited tumor growth; tumor growth (783C-6 xenografts): markedly inhibited tumor growth; tumor growth (SK-CHA-1 xenografts): markedly inhibited tumor growth; tumor growth (HuCCT1 xenografts): limited efficacy; tumor growth (1405R3 xenografts): limited efficacy
